Reference: ChEMBL document CHEMBL1268939, “Synthesis and evaluation of bivalent, peptidomimetic antagonists of the αvβ3 integrins” (Bioorg Med Chem Lett, 2010)

Biological target: Integrin alpha-V/beta-3 (Homo sapiens, UniProt P05106+P06756)
Assay: Inhibition of biotinylated vitronectin binding to human alphaVbeta3 integrin after 3 hrs by ELISA
Type: protein-complex assay

Integrin alpha-V/beta-3, sequence (P05106 27-788 limits assumed): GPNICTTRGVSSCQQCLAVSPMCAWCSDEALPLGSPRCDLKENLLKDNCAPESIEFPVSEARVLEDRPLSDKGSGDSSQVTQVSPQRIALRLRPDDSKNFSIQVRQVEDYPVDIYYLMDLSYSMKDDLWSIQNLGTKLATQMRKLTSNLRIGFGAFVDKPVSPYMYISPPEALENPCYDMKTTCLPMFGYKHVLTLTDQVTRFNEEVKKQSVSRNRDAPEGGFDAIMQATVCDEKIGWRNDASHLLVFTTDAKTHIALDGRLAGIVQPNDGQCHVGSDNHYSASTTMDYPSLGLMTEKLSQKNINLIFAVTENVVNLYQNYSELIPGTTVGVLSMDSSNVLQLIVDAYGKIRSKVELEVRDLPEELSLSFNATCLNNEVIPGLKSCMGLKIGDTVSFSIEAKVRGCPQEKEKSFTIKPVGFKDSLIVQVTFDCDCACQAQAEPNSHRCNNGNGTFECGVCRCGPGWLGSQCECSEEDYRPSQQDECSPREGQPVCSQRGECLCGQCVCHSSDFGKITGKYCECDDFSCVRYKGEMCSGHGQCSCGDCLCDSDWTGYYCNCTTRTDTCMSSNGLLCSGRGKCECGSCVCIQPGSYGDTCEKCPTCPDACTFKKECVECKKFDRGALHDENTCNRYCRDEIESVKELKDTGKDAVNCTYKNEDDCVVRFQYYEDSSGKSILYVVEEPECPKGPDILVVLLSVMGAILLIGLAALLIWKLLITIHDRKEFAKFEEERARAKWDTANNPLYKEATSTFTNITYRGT
Integrin alpha-V/beta-3, sequence (P06756 31-889 limits assumed): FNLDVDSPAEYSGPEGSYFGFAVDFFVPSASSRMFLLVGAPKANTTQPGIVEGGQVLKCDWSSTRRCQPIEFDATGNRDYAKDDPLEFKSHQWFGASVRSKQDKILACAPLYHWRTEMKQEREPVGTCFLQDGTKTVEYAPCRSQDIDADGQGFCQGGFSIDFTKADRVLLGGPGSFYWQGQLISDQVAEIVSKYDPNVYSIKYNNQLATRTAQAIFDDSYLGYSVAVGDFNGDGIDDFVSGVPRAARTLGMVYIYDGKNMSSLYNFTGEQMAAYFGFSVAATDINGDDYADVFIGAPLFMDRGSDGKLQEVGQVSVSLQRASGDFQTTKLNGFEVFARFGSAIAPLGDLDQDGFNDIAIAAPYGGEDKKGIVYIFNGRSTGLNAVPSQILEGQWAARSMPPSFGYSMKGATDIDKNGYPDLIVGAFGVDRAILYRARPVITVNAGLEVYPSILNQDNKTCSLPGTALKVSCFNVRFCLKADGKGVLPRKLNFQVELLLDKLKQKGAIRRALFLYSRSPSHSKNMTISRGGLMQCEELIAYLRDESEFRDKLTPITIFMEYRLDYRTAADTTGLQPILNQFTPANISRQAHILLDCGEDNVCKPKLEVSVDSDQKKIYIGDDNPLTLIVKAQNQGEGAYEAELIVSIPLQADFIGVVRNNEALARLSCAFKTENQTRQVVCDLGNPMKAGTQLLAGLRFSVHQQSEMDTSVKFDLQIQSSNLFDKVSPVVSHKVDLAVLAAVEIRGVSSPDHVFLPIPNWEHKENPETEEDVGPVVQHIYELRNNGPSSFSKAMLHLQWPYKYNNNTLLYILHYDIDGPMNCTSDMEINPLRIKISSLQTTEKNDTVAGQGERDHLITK
Integrin alpha-V/beta-3, sequence (P06756 891-1048 limits assumed): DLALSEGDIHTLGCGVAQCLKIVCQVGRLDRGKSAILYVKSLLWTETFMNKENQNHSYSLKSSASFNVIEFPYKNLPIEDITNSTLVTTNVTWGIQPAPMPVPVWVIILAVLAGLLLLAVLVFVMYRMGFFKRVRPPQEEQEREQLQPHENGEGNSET

IC50 | Structure (SMILES)
22.3 nM | NCCS(=O)(=O)N[C@@H](CNC(=O)c1ccc(OCCNC2=NCCCN2)cc1)C(=O)O
2.07 nM | CC(C)(CN)COC(=O)NCCS(=O)(=O)N[C@@H](CNC(=O)c1ccc(OCCNC2=NCCCN2)cc1)C(=O)O
0.32 nM | CC(C)(CNC(=O)OCCOCCOCCOCCOCCOCCOCCOCCOC(=O)NCC(C)(C)COC(=O)NCCS(=O)(=O)N[C@@H](CNC(=O)c1ccc(OCCN=C2NCCCN2)cc1)C(=O)O)COC(=O)NCCS(=O)(=O)N[C@@H](CNC(=O)c1ccc(OCCN=C2NCCCN2)cc1)C(=O)O
